From patent publication US10676514B2, “CDCA1-derived peptide and vaccine containing same” (ONCOTHERAPY SCIENCE, INC., priority 2014, dated 2020)
“Also recorded” adds a separate entry of the source.

Legend:
peptide-pulsed C1R-A03 = test: IFN-gamma ELISA of CTL lines and CTL clones (HLA-A*0301); type: cell-based, human; details: for IFN-gamma production of CTL clones: CTL clones by limiting dilution; for IFN-gamma production of CTL lines: peptide-pulsed vs non-pulsed target cells, HLA-A*0301
Experimental: (§1) CTLs were propagated in culture using methods similar to those disclosed by Riddell et al. (Walter E A et al., N Engl J Med 1995, 333(16): 1038-44; Riddell S R et al., Nat Med 1996, 2(2): 216-23). The CTLs were co-cultured in a total of 25 ml AIM-V medium containing 5% AS (AIM-V/5% AS) and 40 ng/ml anti-CD3 antibody with two types of Mitomycin C-treated human B lymphoblastoid cell lines at 5×10^6 cells/flask. One day after beginning of the culturing, 120 IU/ml IL-2 was added to the culture. On days 5, 8 and 11, a fresh AIM-V/5% AS medium containing 30 IU/ml IL-2 was added to the culture (Tanaka H et al., Br J Cancer 2001, 84(1): 94-9; Umano Y et al., Br J Cancer 2001, 84(8): 1052-7; Uchida N et al., Clin Cancer Res 2004, 10(24): 8577-86; Suda T et al., Cancer Sci 2006, 97(5): 411-9; Watanabe T et al., Cancer Sci 2005, 96(8): 498-506).
(§2) Dilution of CTLs was carried out to make 0.3, 1 and 3 cells/well in 96 round-bottomed microtiter plates (Nalge Nunc International). The CTLs were co-cultured with two types of Mitomycin C-treated human B lymphoblastoid cell lines at 1×10^4 cells/well in a total of 150 micro-l/well AIM-V/5% AS medium with 30 ng/ml anti-CD3 antibody and 125 IU/ml IL-2. Ten days later, IL-2 was added to the medium at 50 micro-l/well to reach a final concentration of 125 IU/ml. On day 14, the CTL activity was tested, and the CTL clones were propagated using the same method as described above (Uchida N et al., Clin Cancer Res 2004, 10(24): 8577-86; Suda T et al., Cancer Sci 2006, 97(5): 411-9; Watanabe T et al., Cancer Sci 2005, 96(8): 498-506).
Specifically, peptide-pulsed C1R-A03 (1×10^4 cells/well) was prepared as the stimulator cell. The induced CTLs, i.e., CTL lines and CTL clones, were used as the responder cell. The IFN-gamma ELISPOT assay and IFN-gamma ELISA were performed according to the manufacturer's manual.

[1] = system: COS7 cells transfected with CDCA1 and HLA-A*0301; test: Specific CTL activity against target cells expressing CDCA1 and HLA-A*0301; type: cell-based, African green monkey; details: for specific CTL activity of CTL clones: COS7 cells transfected with both CDCA1 and HLA-A*0301; for specific CTL activity of CTL clones against control cells: COS7 cells transfected with either full-length CDCA1 or HLA-A*0301
From the text: (§3) A cDNA encoding the open-reading frame of a target gene or HLA-A*0301 was amplified by PCR. The PCR-amplified product was cloned into an expression vector. Either or both of the target gene-expressing vector and the HLA-A*0301-expressing vector were transfected into COS7, which is a cell line negative for the target gene and HLA, using Lipofectamine 2000 (Invitrogen) following the manufacturer's recommended protocol. Two days after transfection, the transfected cells were harvested using versene (Invitrogen), and used as the target cell for CTL activity assay (5×10^4 cells/well).
(§4) The CTL clones established against CDCA1-A03-9-219 (SEQ ID NO: 7) (a) and CDCA1-A03-10-400 (SEQ ID NO: 38) (b) were investigated for their ability to recognize target cells expressing CDCA1 and the HLA-A*0301 molecule. COS7 cells transfected with both full-length CDCA1 and the HLA-A*0301 gene (a specific model of target cells expressing CDCA1 and the HLA-A*0301 gene) were prepared as the target cell. COS7 cells transfected with either full-length CDCA1 or HLA-A*0301 were prepared as the control.

peptide-pulsed C1R-A11 = test: IFN-gamma ELISA of CTL lines and CTL clones (HLA-A*1101); type: cell-based, human; details: for IFN-gamma production of CTL clones: CTL clones by limiting dilution
Experimental: as §1, §2
Specifically, peptide-pulsed C1R-A11 (1×10^4 cells/well) was prepared as the stimulator cell. The induced CTLs, i.e., CTL lines and CTL clones, were used as the responder cell. The IFN-gamma ELISPOT assay and IFN-gamma ELISA were performed according to the manufacturer's manual.

[2] = system: COS7 cells transfected with CDCA1 and HLA-A*1101; test: Specific CTL activity against target cells expressing CDCA1 and HLA-A*1101; type: cell-based, African green monkey; details: listed as CDCA1-A11-9-219
From the text: as §3, with “HLA-A*1101” for “HLA-A*0301”, “HLA-A*1101-expressing” for “HLA-A*0301-expressing”
as §4, with “clone” for “clones”, “CDCA-A11-9-219” for “CDCA1-A03-9-219”, “was” for “(a) and CDCA1-A03-10-400 (SEQ ID NO: 38) (b) were”, “its” for “their”, “HLA-A*1101” for “HLA-A*0301”

| Sequence | IFN-gamma production of CTL clones (peptide-pulsed C1R-A03; peptide-pulsed C1R-A03, listed as CDCA1-A03-10-400) | IFN-gamma production of CTL lines (peptide-pulsed C1R-A03) | specific CTL activity of CTL clones ([1]; listed as CDCA1-A03-10-400) | specific CTL activity of CTL clones against control cells ([1]; listed as CDCA1-A03-10-400) | IFN-gamma production of CTL clones (peptide-pulsed C1R-A11; peptide-pulsed C1R-A11, listed as CDCA1-A1-9-219) | IFN-gamma production of CTL clones (peptide-pulsed C1R-A11; peptide-pulsed C1R-A11, listed as CDCA1-A11-9-219) | IFN-gamma production of CTL lines (peptide-pulsed C1R-A11; CTL lines, peptide-pulsed vs non-pulsed target cells, HLA-A*1101) | specific CTL activity of CTL clone ([2]; COS7 cells transfected with both CDCA1 and HLA-A*1101) | specific CTL activity of CTL clone against control cells ([2]; COS7 cells transfected with either full-length CDCA1 or HLA-A*1101) | IFN-gamma production of CTL clones (peptide-pulsed C1R-A03; peptide-pulsed C1R-A03, listed as CDCA1-A03-9-219) | specific CTL activity of CTL clones ([1]; listed as CDCA1-A03-9-219) | specific CTL activity of CTL clones against control cells ([1]; listed as CDCA1-A03-9-219) |
| --- | --- | --- | --- | --- | --- | --- | --- | --- | --- | --- | --- | --- |
| KIKLGIQQLK (a peptide derived from CDCA1) [SEQ ID NO: 38] | Potent IFN-gamma production | potent IFN-gamma production | specific CTL activity; also recorded: potent CTL activity | a significant specific CTL activity was not shown; also recorded: a significant specific CTL activity was not detected | – | – | – | – | – | – | – | – |
| KTKRLNELK (a peptide derived from CDCA1) [SEQ ID NO: 7] | – | potent IFN-gamma production | – | – | potent IFN-gamma production | Potent IFN-gamma production | potent IFN-gamma production | specific CTL activity; also recorded: potent CTL activity | a significant specific CTL activity was not shown; also recorded: a significant specific CTL activity was not detected | Potent IFN-gamma production | specific CTL activity; also recorded: potent CTL activity | a significant specific CTL activity was not shown; also recorded: a significant specific CTL activity was not detected |
